Laboratory results from ChEMBL document CHEMBL1687752, “Impact of antifungal prophylaxis on colonization and azole susceptibility of Candida species” (2009).
In brackets after ≈: the same amount, converted by molar mass.

The molecules below were run on Nakaseomyces glabratus (assay: Antifungal activity against Candida glabrata isolated from HSCT recipient 270 with acute or chronic GVHD mouth receiving antifungal drug after 108 days prophylaxis by broth microdilution method). Settings: not given.
Format: functional

Structure (SMILES) | MIC
CCC(C)n1ncn(-c2ccc(N3CCN(c4ccc(OCC5COC(Cn6cncn6)(c6ccc(Cl)cc6Cl)O5)cc4)CC3)cc2)c1=O (stereo not given) [ITRACONAZOLE] | 1 µg/mL (≈ 1.42 µM)

Each molecule was assayed on Nakaseomyces glabratus (assay: Antifungal activity against Candida glabrata isolated from neutropenic subject 1331 with AML or MDS pharynx receiving antifungal drug after 21 days prophylaxis by broth microdilution method). Settings: 504 h.
Format: functional

Structure (SMILES) | MIC
CCC(C)n1ncn(-c2ccc(N3CCN(c4ccc(OCC5COC(Cn6cncn6)(c6ccc(Cl)cc6Cl)O5)cc4)CC3)cc2)c1=O (stereo not given) [ITRACONAZOLE] | 8 µg/mL (≈ 11.3 µM)

Each molecule was assayed on Pichia kudriavzevii (assay: Antifungal activity against 14 days cultured Candida krusei isolated from neutropenic subject with AML or MDS stool after 12 days of prophylaxis by broth microdilution method). Settings: not given.
Format: functional

Structure (SMILES) | MIC
CCC(C)n1ncn(-c2ccc(N3CCN(c4ccc(OCC5COC(Cn6cncn6)(c6ccc(Cl)cc6Cl)O5)cc4)CC3)cc2)c1=O (stereo not given) [ITRACONAZOLE] | 0.25 µg/mL (≈ 0.354 µM)

What follows are molecules tested on Nakaseomyces glabratus (assay: Antifungal activity against Candida glabrata isolated from neutropenic subject 1318 with AML or MDS stool after 36 days prophylaxis by broth microdilution method). Settings: not given.
Format: functional

Structure (SMILES) | MIC
CCC(C)n1ncn(-c2ccc(N3CCN(c4ccc(OCC5COC(Cn6cncn6)(c6ccc(Cl)cc6Cl)O5)cc4)CC3)cc2)c1=O (stereo not given) [ITRACONAZOLE] | 0.25 µg/mL (≈ 0.354 µM)

The molecules below were run on Pichia kudriavzevii (assay: Antifungal activity against Candida krusei isolated from HSCT recipients with acute or chronic GVHD prior to initiation of posaconazole therapy assessed as maximum MIC by broth microdilution method). Settings: not given.
Format: functional

Structure (SMILES) | MIC
CCC(C)n1ncn(-c2ccc(N3CCN(c4ccc(OCC5COC(Cn6cncn6)(c6ccc(Cl)cc6Cl)O5)cc4)CC3)cc2)c1=O (stereo not given) [ITRACONAZOLE] | 16 µg/mL

These molecules were tested on Pichia kudriavzevii (assay: Antifungal activity against Candida krusei isolated from HSCT recipients with acute or chronic GVHD prior to initiation of fluconazole therapy assessed as maximum MIC by broth microdilution method). Settings: not given.
Format: functional

Structure (SMILES) | MIC
CCC(C)n1ncn(-c2ccc(N3CCN(c4ccc(OCC5COC(Cn6cncn6)(c6ccc(Cl)cc6Cl)O5)cc4)CC3)cc2)c1=O (stereo not given) [ITRACONAZOLE] | 1 µg/mL

The molecules below were run on Nakaseomyces glabratus (assay: Antifungal activity against Candida glabrata isolated from HSCT recipients with acute or chronic GVHD receiving fluconazole assessed as maximum MIC by broth microdilution method). Settings: not given.
Format: functional

Structure (SMILES) | MIC
CCC(C)n1ncn(-c2ccc(N3CCN(c4ccc(OCC5COC(Cn6cncn6)(c6ccc(Cl)cc6Cl)O5)cc4)CC3)cc2)c1=O (stereo not given) [ITRACONAZOLE] | 32 µg/mL

The molecules below were run on Nakaseomyces glabratus (assay: Antifungal activity against Candida glabrata isolated from neutropenic subjects with AML or MDS receiving fluconazole assessed as maximum MIC by broth microdilution method). Settings: not given.
Format: functional

Structure (SMILES) | MIC
CCC(C)n1ncn(-c2ccc(N3CCN(c4ccc(OCC5COC(Cn6cncn6)(c6ccc(Cl)cc6Cl)O5)cc4)CC3)cc2)c1=O (stereo not given) [ITRACONAZOLE] | 8 µg/mL

The molecules below were run on Candida albicans (assay: Antifungal activity against Candida albicans isolated from neutropenic subjects with AML or MDS prior to initiation of fluconazole therapy assessed as maximum MIC by broth microdilution method). Settings: not given.
Format: functional

Structure (SMILES) | MIC
CCC(C)n1ncn(-c2ccc(N3CCN(c4ccc(OCC5COC(Cn6cncn6)(c6ccc(Cl)cc6Cl)O5)cc4)CC3)cc2)c1=O (stereo not given) [ITRACONAZOLE] | 0.125 µg/mL

These molecules were tested on Pichia kudriavzevii (assay: Antifungal activity against Candida krusei isolated from neutropenic subjects with AML or MDS prior to initiation of posaconazole therapy assessed as maximum MIC by broth microdilution method). Settings: not given.
Format: functional

Structure (SMILES) | MIC
CCC(C)n1ncn(-c2ccc(N3CCN(c4ccc(OCC5COC(Cn6cncn6)(c6ccc(Cl)cc6Cl)O5)cc4)CC3)cc2)c1=O (stereo not given) [ITRACONAZOLE] | 0.5 µg/mL

What follows are molecules tested on Candida albicans (assay: Antifungal activity against Candida albicans isolated from neutropenic subjects with AML or MDS receiving posaconazole by broth microdilution method). Settings: not given.
Format: functional

Structure (SMILES) | MIC50 | MIC90
CCC(C)n1ncn(-c2ccc(N3CCN(c4ccc(OCC5COC(Cn6cncn6)(c6ccc(Cl)cc6Cl)O5)cc4)CC3)cc2)c1=O (stereo not given) [ITRACONAZOLE] | 0.015 µg/mL (≈ 0.0213 µM) | 0.03 µg/mL (≈ 0.0425 µM)

What follows are molecules tested on Candida albicans (assay: Antifungal activity against Candida albicans isolated from HSCT recipient 462 with acute or chronic GVHD mouth receiving antifungal drug after 112 days prophylaxis by broth microdilution method). Settings: not given.
Format: functional

Structure (SMILES) | MIC
CCC(C)n1ncn(-c2ccc(N3CCN(c4ccc(OCC5COC(Cn6cncn6)(c6ccc(Cl)cc6Cl)O5)cc4)CC3)cc2)c1=O (stereo not given) [ITRACONAZOLE] | 0.03 µg/mL (≈ 0.0425 µM)

These molecules were tested on Candida tropicalis (assay: Antifungal activity against 2 days cultured Candida tropicalis isolated from neutropenic subject with AML or MDS pharynx receiving antifungal therapy for 45 days after 24 days of prophylaxis by broth microdilution method). Settings: not given.
Format: functional

Structure (SMILES) | MIC
CCC(C)n1ncn(-c2ccc(N3CCN(c4ccc(OCC5COC(Cn6cncn6)(c6ccc(Cl)cc6Cl)O5)cc4)CC3)cc2)c1=O (stereo not given) [ITRACONAZOLE] | 0.03 µg/mL (≈ 0.0425 µM)

The molecules below were run on Nakaseomyces glabratus (assay: Antifungal activity against Candida glabrata isolated from HSCT recipients with acute or chronic GVHD receiving posaconazole assessed as maximum MIC by broth microdilution method). Settings: not given.
Format: functional

Structure (SMILES) | MIC
CCC(C)n1ncn(-c2ccc(N3CCN(c4ccc(OCC5COC(Cn6cncn6)(c6ccc(Cl)cc6Cl)O5)cc4)CC3)cc2)c1=O (stereo not given) [ITRACONAZOLE] | 8 µg/mL

These molecules were tested on Pichia kudriavzevii (assay: Antifungal activity against Candida krusei isolated from neutropenic subjects with AML or MDS prior to initiation of fluconazole therapy assessed as maximum MIC by broth microdilution method). Settings: not given.
Format: functional

Structure (SMILES) | MIC
CCC(C)n1ncn(-c2ccc(N3CCN(c4ccc(OCC5COC(Cn6cncn6)(c6ccc(Cl)cc6Cl)O5)cc4)CC3)cc2)c1=O (stereo not given) [ITRACONAZOLE] | 0.5 µg/mL

The molecules below were run on Nakaseomyces glabratus (assay: Antifungal activity against 176 days cultured Candida glabrata isolated from HSCT recipient with acute or chronic GVHD mouth receiving antifungal therapy for 172 days after 114 days of prophylaxis by broth microdilution method). Settings: not given.
Format: functional

Structure (SMILES) | MIC
CCC(C)n1ncn(-c2ccc(N3CCN(c4ccc(OCC5COC(Cn6cncn6)(c6ccc(Cl)cc6Cl)O5)cc4)CC3)cc2)c1=O (stereo not given) [ITRACONAZOLE] | 8 µg/mL (≈ 11.3 µM)

Each molecule was assayed on Nakaseomyces glabratus (assay: Antifungal activity against Candida glabrata isolated from HSCT recipients with acute or chronic GVHD prior to initiation of fluconazole therapy assessed as maximum MIC by broth microdilution method). Settings: not given.
Format: functional

Structure (SMILES) | MIC
CCC(C)n1ncn(-c2ccc(N3CCN(c4ccc(OCC5COC(Cn6cncn6)(c6ccc(Cl)cc6Cl)O5)cc4)CC3)cc2)c1=O (stereo not given) [ITRACONAZOLE] | 32 µg/mL

These molecules were tested on Nakaseomyces glabratus (assay: Antifungal activity against Candida glabrata isolated from HSCT recipient 807 with acute or chronic GVHD mouth after 114 days prophylaxis by broth microdilution method). Settings: not given.
Format: functional

Structure (SMILES) | MIC
CCC(C)n1ncn(-c2ccc(N3CCN(c4ccc(OCC5COC(Cn6cncn6)(c6ccc(Cl)cc6Cl)O5)cc4)CC3)cc2)c1=O (stereo not given) [ITRACONAZOLE] | 0.5 µg/mL (≈ 0.709 µM)

Each molecule was assayed on Pichia kudriavzevii (assay: Antifungal activity against 6 days cultured Candida krusei isolated from neutropenic subject with AML or MDS stool receiving antifungal therapy for 19 days after 6 days of prophylaxis by broth microdilution method). Settings: not given.
Format: functional

Structure (SMILES) | MIC
CCC(C)n1ncn(-c2ccc(N3CCN(c4ccc(OCC5COC(Cn6cncn6)(c6ccc(Cl)cc6Cl)O5)cc4)CC3)cc2)c1=O (stereo not given) [ITRACONAZOLE] | 0.5 µg/mL (≈ 0.709 µM)
